Laboratory results reported in US10308960B2, “Methods for treating cells containing fusion genes” (University of Pittsburgh—of the Commonwealth System of …, priority 2014, dated 2019).
In brackets after ≈: the same amount, converted by molar mass.

Assays:
[1] = system: PC3 cells expressing MAN2A1-FER; assay: Killing of MAN2A1-FER expressing PC3 cells by kinase inhibitors; type: cell-based, human; conditions: for cell death: PC3 transformed with pCDNA4-MAN2A1-FER-FLAG/pCDNA6, MAN2A1-FER expressing, Crisotinib low dosage 24 hours; for specific killing of MAN2A1-FER expressing cells (FIG. 23): expression induced with 5 μg/mL tetracycline
[2] = system: PC3 cells not expressing MAN2A1-FER (Tet−); assay: Killing of PC3 cells not expressing MAN2A1-FER (Tet−) by kinase inhibitors; type: cell-based, human; conditions: same treatment, cells not expressing the fusion protein (Tet−)
Experimental: FIG. 23. […] Prostate cancer cell line PC3 was transformed with pCDNA4-MAN2A1-FER-FLAG/pCDNA6. Expression of MAN2A1-FER was induced with 5 μg/mL tetracycline. Cells not treated with tetracycline nor any drug were used as background controls.
The second approach is to target EGFR activation by EGFR inhibitors. These include erlotinib, cetuximab, […], canertinib and […]. Many of these drugs were FDA approved and is widely used in a variety of human solid tumors. To interrogate the effectiveness of EGFR activation interruption in treating prostate cancer, we treated MAN2A1-FER transformed PC3 cells with canertinib.

[3] = system: PC3 cells containing TMEM135-CCDC67 breakpoint; assay: Ganciclovir cell death after co-transfection of TK donor DNA and nickase-gRNA vector, breakpoint cells; type: cell-based, human
Experimental: (§1) FIG. 28A-B. Genetic therapy targeting at TMEM135-CCDC67 genome breakpoint.
(§2) The technique described above was applied to cells having the TMEM135-CCDC67 breakpoint. Since none of the fusion genes identified so far was present in prostate cancer cell lines, a TMEM135-CCDC67 genome breakpoint was created that is identical to the prostate cancer sample were analyzed. The expression of the TMEM135-CCDC67 breakpoint was driven by a CMV promoter. Subsequently, a donor DNA was constructed that encompassed HSV-1 TK and the splicing sites of TMEM135 exon 14. When this donor DNA was co-transfected with a vector that expresses gRNA targeting at the TMEM135-CCDC67 breakpoint into PC3 cells containing this genome breakpoint, integration of TK into the genome was identified (FIG. 28A). […] This is remarkable in considering only 5-10% transfection efficiency using conventional liposome method. […] In light of this promising result, both TMEM135-CCDC67-TK cassette and NicKase-gRNATMEM135-CCDC67-BrkPt DNA are now in the process of packaging into Adenovirus. We will infect the recombinant virus into these cells in the future experiments. This will dramatically improve the delivery efficiency in the subsequent animal study and probably human.

[4] = system: PC3 cells without TMEM135-CCDC67 breakpoint; assay: Ganciclovir cell death after co-transfection of TK donor DNA and nickase-gRNA vector, cells without breakpoint; type: cell-based, human; conditions: same treatment
Experimental: as §1, §2

[5] = system: PC3 cells containing TMEM135-CCDC67 breakpoint (PC3 + pCMV-BP); assay: FACS analysis of apoptotic cells (Annexin V), PC3 with breakpoint; type: cell-based, human; conditions: PC3 with breakpoint infected with both adenoviruses
Experimental: (§3) FIG. 31A-B. Treatment with nucleotide analogue ganciclovir kills cancer cells expressing EGFP-tk. (A) PC3 or DU145 cells containing the TMEM135-CCDC67 fusion gene were infected with pAD5-Cas9^D10A-gRNA^TMEM135int13-gRNA^CCDC67int9 and pAD-TMEM135int13-EGFP-tk-CCDC67int9. These cells were then incubated with various concentrations of ganciclovir for 24 hours. Cell deaths were then quantified with phycoerythrin labeled Annexin V through flow cytometer. PC3 or DU145 cells harboring no TMEM135-CCDC67 breakpoint were used as controls. (B) Representative sample of cell death induced by ganciclovir on cells infected with pAD5-Cas9^D10A-gRNA^TMEM135int13-gRNA^CCDC67int9 and pAD-TMEM135int13-EGFP-tk-CCDC67int9, and treated with 5 μg/ml ganciclovir. PC3 or DU145 cells harboring no TMEM135-CCDC67 breakpoint were used as controls. Apoptosis was indicated by Annexin V staining.
(§4) Fluorescence activated cell sorting (FACS) analysis of apoptotic cells. The assays were previously described.^8-16 Briefly, the cells treated with pAD5-Cas9^D10A-gRNA^TMEM135int13-gRNA^CCDC67int9/pAD-TMEM135int13-EGFP-tk-CDC67int9, and various concentrations of ganciclovir were trypsinized and washed twice with cold PBS. […] The fluorescence stained cells were analyzed at the fluorescence emission at 533 nm (FL2). […] For each acquisition, 10,000 to 20,000 cells were sorted based on the fluorescence color of the cells. […]

[6] = system: DU145 cells containing TMEM135-CCDC67 breakpoint (DU145 + pCMV-BP); assay: FACS analysis of apoptotic cells (Annexin V), DU145 with breakpoint; type: cell-based; conditions: DU145 with breakpoint infected with both adenoviruses
Experimental: as §3, §4

[7] = system: PC3 cells harboring no TMEM135-CCDC67 breakpoint (PC3 + pCMV); assay: FACS analysis of apoptotic cells (Annexin V), PC3 without breakpoint; type: cell-based, human; conditions: PC3, equally infected, ganciclovir up to 100 μg/ml
Experimental: as §3, §4

[8] = system: DU145 cells harboring no TMEM135-CCDC67 breakpoint (DU145 + pCMV); assay: FACS analysis of apoptotic cells (Annexin V), DU145 without breakpoint; type: cell-based; conditions: DU145, equally infected, ganciclovir up to 100 μg/ml
Experimental: as §3, §4

[9] = system: SLC45A2-AMACR transformed PC3 cells treated with tetracycline (PC3/SLAM tet+); assay: Ebselen cell growth inhibition, PC3/SLAM tet+; type: cell-based, human
Excerpt: (§5) FIG. 26. […] Untransformed RWPE1, NIH3T3 cells and SLC45A2-AMACR transformed PC3 cells treated with (PC3/SLAM tet+) or without tetracycline (PC3/SLAM tet−) were applied with indicated concentration of Ebselen. Cell growths relative to unapplied controls were examined.
(§6) Therapeutic targeting at SLC45A2-AMACR using racemase inhibitor. To investigate whether targeting SLC45A2-AMACR is a viable approach to treat prostate cancer, we chose 2 approaches: 1) To intercept SLC45A2-AMACR/SHIP2-Akt pathway with small molecules; and 2) to block the ectopic racemase activity of SLC45A2-AMACR with ebselen or trifluoro-ibuprofen. […] This is probably due to Pten negative status of PC3 cells such that Akt pathway is fully activated regardless the presence of SLC45A2-AMACR. On the other hand, when we applied ebselen, the potent inhibitor of racemase of AMACR, to SLC45A2-AMACR expressing PC3 cells, 5 fold higher sensitivity of cell growth inhibition was found for PC3 cells transformed with pCDNA4-SLC45A2-AMACR-FLAG/pCDNA6 over the controls.

[10] = system: SLC45A2-AMACR transformed PC3 cells without tetracycline (PC3/SLAM tet−); assay: Ebselen cell growth inhibition, PC3/SLAM tet−; type: cell-based; conditions: Homo sapiens, PC-3
Excerpt: as §5, §6

NIH3T3 cells = assay: Ebselen cell growth inhibition, NIH3T3; type: cell-based; conditions: Mus musculus
Excerpt: as §5, §6

RWPE1 cells = assay: Ebselen cell growth inhibition, RWPE1; type: cell-based; conditions: Homo sapiens, RWPE-1
Excerpt: as §5, §6

For `C=CC(=O)Nc1cc2c(Nc3ccc(F)c(Cl)c3)ncnc2cc1OCCCN1CCOCC1` [canertinib], the cell death [1] was 34%, the “specific killing of MAN2A1-FER expressing cells (FIG. 23)” value [1] was “specifically kills cells expressing MAN2A1-FER” and the “killing of cells that do not express MAN2A1-FER” value [2] was “minimal”.
For `Nc1nc2c(ncn2COC(CO)CO)c(=O)[nH]1` [ganciclovir, 9-(1,3-dihydroxy-2-propoxymethyl)guanine], the “increase of cell death” value ([3]; PC3 with breakpoint co-transfected with donor DNA and gRNA vector, liposome method) was 8 fold, the “specific killing of breakpoint containing cells (FIG. 28B)” value ([3]; transfected with pTMEM135-CCDC67-TK-GFP and pNicKase-RFP-gRNA-TMEM135-CCDC67-BrkPt) was “specific killing” and the cell death [4] was “minimal cell death”. For the same compound, the EC50 ([5]; Homo sapiens, PC-3, 24 hours, read-out: ganciclovir concentration at which killing reached 50% of its maximal level) was 0.075 µg/mL (≈ 0.294 µM), the “ganciclovir concentration at which killing was at the peak” value [5] was 5 µg/mL and the “ganciclovir concentration at which killing was at the peak” value [6] was 5 µg/mL. The EC50 ([6]; Homo sapiens, DU-145, 24 hours, read-out: ganciclovir concentration at which killing reached 50% of its maximal level) was 0.075 µg/mL (≈ 0.294 µM), the “cell deaths in cells containing no breakpoint” value [7] was “No significant cell deaths” and the “cell deaths in cells containing no breakpoint” value [8] was “No significant cell deaths”.
For `C[C@@H](Oc1cc(-c2cnn(C3CCNCC3)c2)cnc1N)c1c(Cl)ccc(F)c1Cl` [Crisotinib], the cell death [1] was 31%, the “lowering of cancer killing EC50 by expression of MAN2A1-FER” value ([1]; dosage effect analysis, expressing vs not expressing) was about 100 fold and the “specific killing of MAN2A1-FER expressing cells (FIG. 23)” value [1] was “specifically kills cells expressing MAN2A1-FER”. For the same compound, the “killing of cells that do not express MAN2A1-FER” value [2] was “hardly killed”.
In the case of `Cn1cnc2c(F)c(Nc3ccc(Br)cc3Cl)c(C(=O)NOCCO)cc21` [AZD6244], the “differential killing effect (MAN2A1-FER expressing vs not)” value ([1]; MEK interception, data not shown) is reported as “largely moderated and vanished”.
`O=c1c2ccccc2[se]n1-c1ccccc1` [Ebselen, ebselen] was tested, and the IC50 ([9]; Homo sapiens, PC-3, PC3/SLAM tet+) was 37 µM, the “higher sensitivity of cell growth inhibition over the controls” value ([9]; PC3 transformed with pCDNA4-SLC45A2-AMACR-FLAG/pCDNA6 vs controls) was 5 fold and the IC50 [10] was 173 µM. For the same compound, the IC50 (NIH3T3 cells) was over 300 µM and the IC50 (RWPE1 cells) was over 300 µM.
